The values that follow come from ChEMBL document CHEMBL3098093, “Synthesis, modification and docking studies of 5-sulfonyl isatin derivatives as SARS-CoV 3C-like protease inhibitors” (Bioorg Med Chem, 2014).

The structures appear in SMILES notation.

In the first assay the target is Replicase polyprotein 1ab (Severe acute respiratory syndrome-related coronavirus) (UniProt P0C6X7). The assay can be described thus: Inhibition of GST-tagged SARS coronavirus 3C-like protease at 1 mM by FRET assay.
By inhibition is commonly meant the share of the control response that was lost under treatment. Low readings indicate little suppression, high ones strong suppression. Turning to `O=C1Nc2ccc(C(=O)O)cc2C1=O`, the inhibition worked out at 44.8%.
On the same count and under the same terms, the same measure for `COc1ccc2c(c1)C(=O)C(=O)N2`: 95.3%; for `O=C1Nc2ccc(Cl)cc2C1=O`: 84.2%.
`O=C1Nc2cccc(Br)c2C1=O`: the inhibition is 68.4%.
On the same count and under the same terms, the same measure for `O=C1Nc2ccc([N+](=O)[O-])cc2C1=O`: 94%; for `CN1CCN(S(=O)(=O)c2ccc3c(c2)C(=O)C(=O)N3)CC1`: 98.6%.
Take `CC(=O)c1ccc2c(c1)C(=O)C(=O)N2`: the inhibition worked out at 95.4%.
The molecule `O=C1Nc2ccc(Br)cc2C1=O` displayed an inhibition of 90.5%.
`O=C1Nc2ccc(I)cc2C1=O` displayed an inhibition of 86.7%.
On the same count and under the same terms, the same measure for `O=C1Nc2ccc(F)cc2C1=O`: 82.5%; for `O=C1Nc2cc3c(cc2C1=O)CCC3`: 79.4%.

A further assay has as its target Replicase polyprotein 1ab (Severe acute respiratory syndrome-related coronavirus, UniProt P0C6X7). The assay can be described thus: Inhibition of GST-tagged SARS coronavirus 3C-like protease by FRET assay.
The term IC50 denotes the concentration needed to halve the response being measured. Regarding `CC1CCN(S(=O)(=O)c2ccc3c(c2)C(=O)C(=O)N3Cc2ccccc2)CC1`, inhibition was half-maximal at 1.69 µM (IC50).
Still for that read-out and setting: to `O=C1C(=O)N(Cc2ccccc2)c2ccc(S(=O)(=O)N3CCOCC3)cc21` belongs 13.9 µM.
Consider `CC1CC(C)CN(S(=O)(=O)c2ccc3c(c2)C(=O)C(=O)N3C)C1` (stereo not drawn), for which the IC50 turned out to be 2.82 µM.
`CN1CCN(S(=O)(=O)c2ccc3c(c2)C(=O)C(=O)N3Cc2ccc3ccccc3c2)CC1` came in with a half-inhibitory concentration (IC50) of 82.9 µM.
Molecule `CN1C(=O)C(=O)c2cc(S(=O)(=O)N3CCN(CCc4ccccc4)CC3)ccc21` gave an IC50 of 13.9 µM.
Consider `O=C1Nc2ccc(S(=O)(=O)N3CCN(CCc4ccccc4)CC3)cc2C1=O`, for which inhibition was half-maximal at 34.9 µM (IC50).
For the molecule `CN1CCN(S(=O)(=O)c2ccc3c(c2)C(=O)C(=O)N3)CC1`, the half-inhibitory concentration (IC50) was 76.7 µM.
In the case of `CC1CC(C)CN(S(=O)(=O)c2ccc3c(c2)C(=O)C(=O)N3Cc2ccccc2)C1` (stereo not drawn), the IC50 was determined as 4.7 µM.
Same read-out and setting: the same measure for `CN1C(=O)C(=O)c2cc(S(=O)(=O)N3CCOCC3)ccc21`: 9.91 µM.
The same measure, in the same setting: to `CC1CCN(S(=O)(=O)c2ccc3c(c2)C(=O)C(=O)N3)CC1` belongs 1.18 µM; to `O=C1Nc2ccc(S(=O)(=O)N3CCOCC3)cc2C1=O`, 12.7 µM.
Same read-out and setting: to `COc1cc(CN2CCN(S(=O)(=O)c3ccc4c(c3)C(=O)C(=O)N4)CC2)cc(OC)c1OC` belongs 32.1 µM; to `CC1CC(C)CN(S(=O)(=O)c2ccc3c(c2)C(=O)C(=O)N3)C1` (stereo not drawn), 4.3 µM.
Molecule `O=C1Nc2ccc(S(=O)(=O)N3CCN(C(=O)c4ccco4)CC3)cc2C1=O` came in with a 50% inhibitory concentration (IC50) of 10.1 µM.
Still for that read-out and setting: the same measure for `O=C1C(=O)N(Cc2ccc3ccccc3c2)c2ccc(S(=O)(=O)N3CCOCC3)cc21`: 39.9 µM; for `O=C1Nc2ccc(S(=O)(=O)N3CCN(c4ccc(F)cc4)CC3)cc2C1=O`: over 100 µM; for `O=C1C(=O)N(Cc2ccccc2)c2ccc(S(=O)(=O)N3CCCCC3)cc21`: 14 µM.
`CN1CCN(S(=O)(=O)c2ccc3c(c2)C(=O)C(=O)N3C)CC1` gave a 50% inhibitory concentration (IC50) of 11.8 µM.
Still for that read-out and setting: to `O=C1Nc2ccc(S(=O)(=O)N3CCCCC3)cc2C1=O` belongs 4.45 µM; to `CC1CCCCN1S(=O)(=O)c1ccc2c(c1)C(=O)C(=O)N2` (stereo not drawn), 2.25 µM; to `CN1CCN(S(=O)(=O)c2ccc3c(c2)C(=O)C(=O)N3Cc2ccccc2)CC1`, 67.2 µM.
`O=C1Nc2ccc(S(=O)(=O)N3CCN(Cc4cccc(Cl)c4)CC3)cc2C1=O` gave a concentration for half-maximal inhibition (IC50) of 31.7 µM.
Take `O=C1Nc2ccc(S(=O)(=O)N3CCN(c4ccccn4)CC3)cc2C1=O`: the concentration for half-maximal inhibition (IC50) was 51.3 µM.
Still for that read-out and setting: the same measure for `CC1CCN(S(=O)(=O)c2ccc3c(c2)C(=O)C(=O)N3Cc2ccc3ccccc3c2)CC1`: 17.8 µM; for `CC1CCN(S(=O)(=O)c2ccc3c(c2)C(=O)C(=O)N3C)CC1`: 1.04 µM.
Still for that read-out and setting: to `O=C1Nc2ccc(S(=O)(=O)N3CCN(c4cccc(C(F)(F)F)c4)CC3)cc2C1=O` belongs over 100 µM.
On the same count and under the same terms, the same measure for `CN1C(=O)C(=O)c2cc(S(=O)(=O)N3CCN(c4ccccn4)CC3)ccc21`: 5.52 µM.
